What was measured:
Format in all cases: cell-based, human
T cells = assay: IFNγ ELISA, repeatedly stimulated T cells; conditions: FIG. 16
Protocol: (§1) ELISA assays were performed using human IL2 and IFNγ Ready-SET-Go kits (eBioscience). Three replicates were included for each experimental set and each experiment was repeated three or more times. ELISA was performed on the supernatant saved from each stimulation step. CD4+ or CD8+ T cells were stimulated with anti-CD3/CD28 beads and cultured for 48 hours, after which cells were spun down and supernatants carefully removed and saved at −20° C. The same procedure was followed for the rest of the stimulation steps.
Human T cell isolation and culture in vitro. CD4+ and CD8+ T cells were enriched from peripheral blood mononuclear cells obtained from healthy donors. Leukoreduction filters from Boston Children's Hospital that were processed using histopaque (Sigma) cushions to separate PBMCs were used. Human CD8+ and CD4+ cells were enriched using naïve CD8 and CD4 T cell enrichment cocktail (BD Biosciences, cat. 51-900481 and 9002314, respectively). […] Cells were stimulated the same day with T-Activator CD3/CD28 dynabeads (Life Technologies, cat. 11131D) following the manufacturer's recommendations. 48 hours after the first stimulation, cells were counted and washed, and beads were removed using a magnet. This was followed by a second, third and fourth round of stimulations with fresh batches of CD3/CD28 beads. […]

H3-K27 trimethylation = assay: Western blot for H3K27me3 in repeatedly stimulated T cells; conditions: inhibitor maintained in activation cultures; FIG. 2D
Protocol: (§2) In experiments using p38MAPK, JNK, MEK1 and Ezh2 inhibitors, cells were grown in the continued presence of inhibitors. After each wash and activation step, cells were treated with a fresh batch of inhibitors. The following inhibitors were used: MAPKp38-SB202190 (10 μmol/ml) (Sigma, cat. S7067), JNK-SP600125 (10 μmol/ml) (Sigma, cat. S5567), MEK1-PD98059 (5 μmol/ml) (Calbiochem, cat. 513001), MEK1/2-inhibitor III (5 μmol/ml) (Calbiochem, cat. 444966) and Ezh2-[…] (10 nmol) (Millipore, cat. 505052). DMSO was used as a mock treatment. The specificity of p38MAPK, JNK and MEK1 inhibitors to block the downstream kinases, phospho-ATF2, phospho-cJun and phospho-ERK, respectively, was confirmed by westerns (FIG. 18A).
(§3) For denaturing westerns, 20-40 μg of protein extracted from T cells was used. RIPA lysis buffer (Sigma, cat. R0278) was used to prepare whole cell extracts. For native gel analysis, cells were lysed in native lysis buffer (50 mM Tris-Cl, pH 8.0; 1% NP40; 150 mM NaCl, 100 μg leupeptin, 1 mM PMSF, 5 mM orthovanadate). For both native and denaturating conditions, samples were resolved on 4-15% TGX precast gels (Bio-Rad, cat. 456-1084) with the difference in running buffer. Native samples were run without SDS. […]

[1] = system: H3-K27 trimethylation of the IL2 promoter; assay: ChIP with anti-H3K27me3 antibody and qPCR for IL2 promoter; conditions: repeatedly stimulated CD4 T cells; FIG. 2E
Protocol: Chromatin immunoprecipitation assay. The ChIP assay was performed using a ChIP-IT high sensitivity kit (Active Motif, cat. 53040), following the manufacturer's recommended protocol. Human CD4+ T cells were repeatedly activated with CD3/CD28 beads in the continued presence of Ezh2 inhibitor or transfected with YY1 shRNA and a control after 2nd stimulation. Approximately 15 μg of chromatin was used in each reaction with an antibody that specifically recognizes H3K27me3 (Active Motif, cat. 39155). Fold enrichment was calculated relative to IgG and input.

CD4 T cells = assay: IL2 ELISA, T cells repeatedly stimulated with anti-CD3/CD28 beads (in vitro exhaustion model); conditions: T cells continuously with Ezh2 inhibitor (10 nmol), after the 4th stimulation
Protocol: as §2, §1
Human T cell isolation and culture in vitro. […] 48 hours after the first stimulation, cells were counted and washed, and beads were removed using a magnet. […]

CEA-CAR T cells = assay: IL2 ELISA in MIPCEA/CAR-T cell cocultures; conditions: 2nd generation CAR-T, MIPCEA cocultures; Ezh2 inhibitor 10 nm or nivolumab 20 μg/ml
Protocol: as §1
To produce second generation CEA-CAR T cells, T cells were modified by retroviral gene therapy to express a single chain antibody domain (sFv) that recognizes CEA tumor antigen. This anti-CEA binding domain is fused together with the full length sequence of CD28 co-stimulatory molecule and sequences of the signaling chain of the CD3 complex (signal 1+2) (FIG. 6A) (Nolan et al., 1999). The clinical grade CEA-CAR vector producing cells have been successfully tested in a number of in vitro studies as well as in a clinical setting to modify T cells for breast cancer clinical trials (Katz et al., 2015). […]
MIP101 and MIPCEA, tumor cell coculture with CEA-CAR modified T cells. […] Each time after the coculture, tumor cells were trypsinized (cellgro) and counted.

MIPCEA cells = conditions: by the 3rd co-culture; Ezh2 inhibitor 10 nm
Text: To produce second generation CEA-CAR T cells, T cells were modified by retroviral gene therapy to express a single chain antibody domain (sFv) that recognizes CEA tumor antigen. This anti-CEA binding domain is fused together with the full length sequence of CD28 co-stimulatory molecule and sequences of the signaling chain of the CD3 complex (signal 1+2) (FIG. 6A) (Nolan et al., 1999). The clinical grade CEA-CAR vector producing cells have been successfully tested in a number of in vitro studies as well as in a clinical setting to modify T cells for breast cancer clinical trials (Katz et al., 2015). The first generation CEA-CAR contains anti-CEA binding domain fused with signaling chain (signal 1) (Nolan et al., 1999 Clin Cancer Res 5, 3928-3941). Transduction of T cells with anti CEA-CAR vector were as previously described (Beaudoin et al., 2008 Nat Med 9, 540-547).
MIP101 and MIPCEA, tumor cell coculture with CEA-CAR modified T cells. MIP101 is a CEA-undifferentiated human carcinoma cell line derived from liver metastases of colonic adenocarcinoma patients. The MIPCEA cell line was generated by stably expressing the full length CEA gene in MIP101 cells (Thomas et al., 1995 Cancer Lett 92, 59-66). […] Each time after the coculture, tumor cells were trypsinized (cellgro) and counted.

[2] = system: phospho-ATF2, phospho-cJun and phospho-ERK; assay: Kinase activities by western blot (inhibitor specificity); conditions: respectively, westerns, FIG. 18A
Protocol: as §2, §3

YY1 promoter = YY1 promoter luciferase reporter assay in restimulated T cells; conditions: after four stimulations, continued presence of inhibitor; FIG. 5C upper
Protocol: Human YY1 promoter luciferase construct YY1-pGLuc-basic was a kind gift from Dr. Guangchao Sui of Wake Forest Health Sciences, NC (Huang et al., 2012 Nucleic Acids Res 40, 1033-1049). The cJun/ATF2 octameric palindrome cyclic AMP-response element (CRE), 5′-[…]-3′(SEQ ID NO: 40), was mutated to 5′-cGgCaTaA-3′ (SEQ ID NO: 41) using the service of GenScript Inc. (Item cat. 426354-1).
The reporter assays and plasmid overexpression were performed in 6 well tissue culture plates. 5×10^6 T cells were transfected with plasmids using Amaxa human T cell nucleofector Kit, cat. VPA-1002 (Lonza). Transfections were performed using Amaxa nucleofector II device, program no. T-023/T-020. Luciferase assays were generally performed 48 hours after transfections. […] The YY1 promoter luciferase assay was measured from T cell culture supernatants using BioLux Gaussia lucferase assay kit (New England Biolabs, cat. no. E3300S). Amounts of transfected plasmids were kept proportionally constant. Samples were assayed for reporter activity using a Gloma 20/20 Luminometer (Promega), essentially using the recommended parameters provided by the reagent suppliers.
In experiments using p38MAPK, JNK, MEK1 and Ezh2 inhibitors, cells were grown in the continued presence of inhibitors. After each wash and activation step, cells were treated with a fresh batch of inhibitors. […]

YY1 = assay: Western blot of YY1 protein in T cells grown with kinase inhibitors; conditions: same cells as reporter assay; FIG. 5C lower
Protocol: as §2, §3

Row | Compound | IL2 production of CAR-T cells on repeated exposure to tumor cells (CEA-CAR T cells) | specificity to block the downstream kinases [2] | YY1 luciferase reporter transcriptional activity (YY1 promoter) | other results
1 | CCCc1cc(C)[nH]c(=O)c1CNC(=O)c1cc(-c2ccc(N3CCN(C(C)C)CC3)nc2)cc2c1cnn2C(C)C [Ezh2 inhibitor] | sustained IL2 | – | – | IFNγ shutdown after repeated T cell stimulation (T cells): does not protect; H3-K27 trimethylation by western (H3-K27 trimethylation): suppressed; H3-K27 trimethylation of the IL2 promoter by ChIP/qPCR [1]: suppressed; IL2 exceeding that of control T cells by a factor (CD4 T cells): > 40; net benefit in killing versus untreated CAR-T cells (MIPCEA cells): 5 fold
2 | COc1cccc(-c2cc(=O)c3ccccc3o2)c1N [MEK1 inhibitor, PD98059] | – | confirmed | no impact | –
3 | Oc1ccc(-c2nc(-c3ccncc3)c(-c3ccc(F)cc3)[nH]2)cc1 [p38MAPK inhibitor, SB202190] | – | confirmed | suppressed | YY1 protein by Western blot (YY1): suppressed
4 | nivolumab | same IL2 loss as control T cells | – | – | –

Source: patent publication US11624068B2, “Compositions and methods for improving immune system function” (Tufts Medical Center, Inc., priority 2016, dated 2023)
